Consider four molecules from patent US9422396B2, “Biodegradable elastomers prepared by the condensation of an organic di-, tri- or tetra-carboxylic acid and an organic diol” (QATAR UNIVERSITY, priority 2007, dated 2016).

Data set [1] can be described thus: In vitro hydrolytic degradation of poly(diol-tricarballylate) elastomers in PBS (pH 7.4). Type of data set: physicochemical. On the procedure:
In order to examine the influence of chain length on the degradation rate and the changes in the mechanical properties of the elastomer during the in vitro degradation, four different elastomers, based on varying chain lengths of alkylene diol (C6-C12), were prepared and tested. FIGS. 21a and 21b show the weight loss and water absorption data for the four prepared elastomers.
Young's modulus (E) and the ultimate tensile stress (σ) decreased in a nearly linear fashion with time as indicative of zero-order degradation mechanism. This linear decrease was observed regardless of the network compositions, the crosslinking density and the initial E and σ of the elastomers. […] No significant change in the ultimate elongation was found up to 12 weeks of the in vitro degradation time. […] It is only with surface erosion degradation pattern that the elastomers can maintain their mechanical properties unchanged^41. […] The above observations illustrates that the changes in the mechanical properties of these networks took place in two stages. The first stage was characterized by a rapid mechanical weakening (rapid decrease in E and a) which lasted for up to 4 weeks. […] This is in correlation with the trend noted for the weight loss and water absorption reported above (FIG. 21).
Through a linear regression of the zero-order degradation kinetics of the data in FIGS. 23a and 23b using equations (1) & (2), the rate constants were calculated and are listed in Table 1. Et=E0−KEt. (1) σt=σ0−Kσt. (2) In equations 1 & 2, t denoted the immersion time (in weeks) in PBS. The values of E0 and σ0 corresponded to the intercepts obtained from extrapolating the zero-order fitted line. Kσ and KE represented the zero-order degradation constants for […].

A short description of data set [2]: Stability of pilocarpine nitrate in the release medium. The data set is classed as physicochemical. The settings on record: over a period of one week. On the procedure:
Before running the release studies, the stability of PCN in the release medium was tested by monitoring the changes in the concentration of a prepared stock solution of PCN in each of them over a period of one week.

In the case of “poly(1,12 dodecane diol-co-tricarballylate) [PDDTC]”, in data set [1], the “KE (zero-order degradation constant, Young's modulus)” value (“KE” for short) stood at 0.0080 MPa/week and the “Kσ (zero-order degradation constant, ultimate tensile stress)” value is 0.0018 MPa/week.

Regarding “poly(1,8 octane diol-co-tricarballylate) [POTC]”, in data set [1], the “KE” value turned out to be 0.0301 MPa/week and the “Kσ (zero-order degradation constant, ultimate tensile stress)” value stood at 0.0124 MPa/week.

For the molecule “poly(1,10 decane diol-co-tricarballylate) [PDTC]”, in data set [1], the “KE” value is recorded as 0.0237 MPa/week and the “Kσ (zero-order degradation constant, ultimate tensile stress)” value was determined as 0.0114 MPa/week.

On to `CC[C@@H]1C(=O)OC[C@@H]1Cc1cncn1C` [PN, Pilocarpine Nitrate], for which the “Change in concentration of stock solution in the release medium” value in data set [2] is given as “no significant changes from its initial concentration”.
